Source: paper PMC3404088, “Development of a Small D-Enantiomeric Alzheimer’s Amyloid-β Binding Peptide Ligand for Future In Vivo Imaging Applications” (PLoS ONE, 2012)
Square brackets hold non-standard residues; d marks the D form. Peptide text beside a SMILES is read from it. * marks the point of attachment. 5FAM = O=C1OC2(c3ccc(O)cc3Oc3cc(O)ccc32)c2ccc(C(=O)*)cc21

Columns and labels:
Aβ1–42 fibrils = target: T1, Aβ1–42 fibrils (Homo sapiens, UniProt P05067); assay: ELISA, compound binding to Aβ1–42 fibrils; conditions: 10 µg/ml compound; optical density after pNPP incubation; value of one single experiment only
T1 construct: Aβ1–42 was dissolved in hexafluoroisopropanol (HFIP)
Description: Aβ1–42 peptide film was prepared from lyophilized powder (Bachem). The powder was reconstituted in HFIP to a final concentration of 1 mM, sonicated for 15 min at room temperature (RT), agitated overnight (ON), and aliquoted into non-siliconized microcentrifuge tubes (12 µl corresponding to 55 µg). The HFIP was evaporated under a stream of argon. The resulting peptide film was vacuum dried for 10 min and stored at -80°C. For direct use as peptide film, an aliquot of Aβ1–42 peptide film was reconstituted with 0.54% dimethylsulphoxide (DMSO) in phosphate buffered saline (PBS) to obtain a final concentration of 10 µg/ml and then used for the ELISA as described below. To prepare fibrils, 55 µg aliquot of peptide film was dissolved in 55 µl of 50 mM Tris-HCl, pH 7.4 and incubated at 37°C for five days. Next, the sample was centrifuged (10’000 rpm for 5 min) and the pellet was diluted in 50 mM Tris-HCl, pH 7.4.
Aβ1–42 peptide preparations were diluted in 0.05 M bicarbonate-carbonate buffer pH 9.6, to the final concentration of 10 µg/ml and coated onto ELISA plates (MaxiSorp, Nunc). After blocking (PBS; 0.05% Tween; 1% BSA), plates were incubated with 2- or 3-fold dilutions of D-compounds (starting concentration: 10 µg/ml) and incubated for 2 h at 37°C. Plates were then washed and incubated for 2 h at 37°C with the detection antibody Rabbit-a-fluorescein isothiocyanate-AP (Sigma; 1∶10’000 dilution) followed by the incubation for 2.5 h at room temperature (RT) with 1 mg/ml of phosphatase substrate (pNPP, Sigma). The absorbance signal was read at 405 nm wavelength using a Tecan plate reader (Tecan Group Lt, Männedorf, Switzerland).
ELISA plates (MaxiSorp, Nunc) were coated with anti-Aβ antibody 6E10 (Covance) at a concentration of 5 µg/ml. Either monomeric Aβ1–42 peptide film (mainly monomeric) or Aβ1–42 fibrils, which were prepared as described above, were diluted in PBS to the final concentration 10 µg/ml and mixed with 10-fold dilutions of D-peptide compounds in Eppendorf tubes (starting concentration of D-peptide compounds: 10 µg/ml). The tubes were incubated for 2 h at 37°C. Next, samples were distributed onto the ELISA plate and kept for 2 h at 37°C. Plates were washed and incubated for 2 h at 37°C with the detection antibody Rabbit-a-fluorescein isothiocyanate-AP (Sigma; 1∶10′000 dilution) following the incubation overnight (ON) at RT with 1 mg/ml of phosphatase substrate (pNPP, Sigma). The absorbance signal was read at 405 nm wavelength using the Tecan plate reader (Tecan Group Ltd, Männedorf, Switzerland).
To verify the SPR results, ELISA was employed to assay the interaction of the ACI-80 derivatives ACI-80-Kϕ, ACI-81-Kϕ, ACI-82-Kϕ, ACI-83-Kϕ, ACI-84-Kϕ, ACI-85-Kϕ, ACI-86-Kϕ, ACI-87-Kϕ, [^19F]-ACI-87-Kϕ, ACI-88-Kϕ, [^19F]-ACI-88-Kϕ, ACI-89-Kϕ, [^19F]-ACI-89-Kϕ) with Aβ1–42 fibrils and Aβ peptide film in solution containing mostly monomers and smaller oligomers (Table 4). To avoid any bias by possible conformational influences the ELISA has been carried out in two versions, once with immobilized antibody and once with immobilized Aβ1–42 as described in the methods section. Both assays yielded similar results and confirmed each other. […] Panels A and B in Figure 2 show the results for binding to Aβ1–42 fibrils and panels C and D in Figure 2 show the results for binding to freshly prepared Aβ1–42 peptide film, which contains mostly monomeric Aβ. In Table 4, the performance of the peptides is expressed relative to that of ACI-80-Kϕ.

[1] = Analysis of ACI-80 stability: N-terminal glutamine vs pyroglutamate content by HPLC/ESI-MS; format: physicochemical; conditions: aqueous solution
Description: In solution, N-terminal glutamine peptides such as D1 are prone to convert into N-terminal pyroglutamate species: Gln-SHYRHISPAQV → Pyr-SHYRHISPAQV. Therefore, the stability of solid ACI-80, solid ACI-80-Kϕ (ϕ: fluorescein isothiocyanate, covalently linked to the peptide via a lysine (K)) and [^127I]-ACI-80 in solution was investigated by JPT Peptide Technologies GmbH, Berlin, Germany using HPLC/ESI-MS whereby the relative content of N-terminal Gln peptide and N-terminal Pyr peptide was assessed.
An important observation during initial compound stability characterization experiments was the partial conversion of the N-terminal glutamine of [^127I]-ACI-80 into pyro-glutamate. It is known that peptides with an N-terminal glutamine are prone to conversion of this residue into a pyroglutamate. Therefore, the composition of freshly synthesized and untreated ACI-80 and ACI-80-Kϕ as well as [^127I]-ACI-80 after iodination were investigated. […] It was observed that freshly synthesized ACI-80 and ACI-80-Kϕ contained only minor fractions of pyroglutamic acid while about one third of [^127I]-ACI-80 in solution already converted into N-terminal pyroglutamate species.

T1 sequence (P05067 672-713 limits assumed): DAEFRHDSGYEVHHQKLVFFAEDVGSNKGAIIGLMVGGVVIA

| Structure (SMILES) | binding value, binding Aβ1–42 fibrils (Aβ1–42 fibrils) | stability in aqueous solution [1] |
| --- | --- | --- |
| CC[C@@H](C)[C@@H](NC(=O)[C@@H](Cc1c[nH]cn1)NC(=O)[C@@H](CCCNC(=N)N)NC(=O)[C@@H](Cc1ccc(O)cc1)NC(=O)[C@@H](Cc1c[nH]cn1)NC(=O)[C@@H](CO)NC(=O)[C@H](N)CCC(N)=O)C(=O)N[C@H](CO)C(=O)N1CCC[C@@H]1C(=O)N[C@H](C)C(=O)N[C@H](CCC(N)=O)C(=O)N[C@H](CCCCN)C(=O)N[C@H](CCCCNC(=O)c1ccc2c(c1)C(=O)OC21c2ccc(O)cc2Oc2cc(O)ccc21)C(=O)O [ACI-87-Kϕ] (H-[dQ][dS][dH][dY][dR][dH][dI][dS][dP][dA][dQ][dK][dK](5FAM)-OH; N-terminus and C-terminus assumed) | *0.93 | stable in aqueous solution |
| CC[C@@H](C)[C@@H](NC(=O)[C@@H](Cc1c[nH]cn1)NC(=O)[C@@H](CCCNC(=N)N)NC(=O)[C@@H](Cc1ccc(O)cc1)NC(=O)[C@@H](Cc1c[nH]cn1)NC(=O)[C@H](N)CO)C(=O)N[C@H](CO)C(=O)N1CCC[C@@H]1C(=O)N[C@H](C)C(=O)N[C@H](CCC(N)=O)C(=O)N[C@H](CCCCN)C(=O)N[C@H](CCCCNC(=O)c1ccc2c(c1)C(=O)OC21c2ccc(O)cc2Oc2cc(O)ccc21)C(=O)O [ACI-88-Kϕ] (H-[dS][dH][dY][dR][dH][dI][dS][dP][dA][dQ][dK][dK](5FAM)-OH; N-terminus and C-terminus assumed) | *1.78 | stable in aqueous solution |
| CC[C@@H](C)[C@@H](NC(=O)[C@@H](Cc1c[nH]cn1)NC(=O)[C@@H](CCCNC(=N)N)NC(=O)[C@@H](Cc1ccc(O)cc1)NC(=O)[C@@H](Cc1c[nH]cn1)NC(=O)[C@@H](CO)NC(=O)[C@H]1CCCN1)C(=O)N[C@H](CO)C(=O)N1CCC[C@@H]1C(=O)N[C@H](C)C(=O)N[C@H](CCC(N)=O)C(=O)N[C@H](CCCCN)C(=O)N[C@H](CCCCNC(=O)c1ccc2c(c1)C(=O)OC21c2ccc(O)cc2Oc2cc(O)ccc21)C(=O)O [ACI-89-Kϕ] (H-[dP][dS][dH][dY][dR][dH][dI][dS][dP][dA][dQ][dK][dK](5FAM)-OH; N-terminus and C-terminus assumed) | *1.49 | stable in aqueous solution |
